Series [1] relates to NCI-H460 cells. Kind of series: Cytotoxicity assay (sulforhodamine B), NCI-H460. The class given is cell-based. As for the experimental part:
(§1) Methods. NCI-H460, HCT-15, OVCAR-3, CACO-2, MCF-7, HT-29, and HCT-116 cells were inoculated into 96 well microtiter plates in 100 microliters of medium at plating densities ranging from 5000 to 40000 cells/well, as given by NCI tables. After cell inoculation, the microtiter plates were incubated at 37° C., 5% CO2, 95% air, and 100% relative humidity for 24 hours. After 24 hours, 2 control plates of each cell line (time zero controls) were fixed by the addition of 30% trichloroacetic acid (TCA, final TCA concentration is 10% w/v). S-9168 was solubilized in saline. […] Additional 4, 10 fold, or ½ log serial dilutions were made to provide a total of five drug concentrations plus controls. Aliquots of 100 microliters of different drug dilutions were added to the appropriate microtiter wells already containing 100 microliters of medium. Following drug addition, the plates were incubated for an additional 48 hours under the same conditions provided above. The assays were terminated by the addition of cold TCA as described above for the time zero controls. The plates were then incubated at 4° C. for at least 60 minutes to fix the cells to the bottom of the plate. […] After staining, unbound dye was removed by washing five times with 1% acetic acid and the plates were allowed to air dry for 12-24 hours at room temperature. […]

Series [2] has as its system HCT-15 cells. Kind of series: Cytotoxicity assay (sulforhodamine B), HCT-15. The class given is cell-based. The protocol:
as §1

Series [3] relates to OVCAR-3 cells. The series can be described thus: Cytotoxicity assay (sulforhodamine B), OVCAR-3. The class given is cell-based. The following applies: OVCAR-3, Assay 6, 48 h drug exposure. The protocol: as §1
Series [4] relates to rats. Kind of series: Plasma creatinine as measure of renal function (Example 7). It is filed as in vivo. The note with it: rat plasma, 8 mg/kg cisplatin, 9.9 mg/kg carboplatin, 19.6 mg/kg S-9168. The protocol:
Methods. Three groups of two rats were cannulated in the jugular vein and allowed to recover for approximately 24 hours. […] Blood samples (1.8 ml) were taken via the jugular vein canal before treatment (day 0) and 1, 2, 3, and 4 days after treatment, spun at 8000 rpm. for 2 minutes, and the plasma was removed. Creatinine assays were performed using the Sigma Creatinine Kit (Sigma Diagnostics Co., St. Louis, Mo.; Cat. No. 555-A) according to the Sigma creatinine assay protocol, in which the difference in color intensity at 500 nm of a sample containing creatinine and alkaline picrate solution before and after acidification is measured. The limit of linearity for the UV spectrophotometer was established by using the calibration curve procedure in the Sigma creatinine assay protocol.
Methods. Four groups of eight rats were cannulated as described in Example 6. […] The fourth group of rats was dosed with saline. Two rats in each group were sacrificed on days 4, 6, and 8 after treatment and 2 ml of blood were withdrawn. The blood sample was spun at 8000 rpm. for 2 minutes and the plasma was removed. Creatinine assays were performed as described in Example 6.

The subject of series [5] is rats. Kind of series: Blood urea nitrogen (BUN) as measure of renal function (Example 8). The class given is in vivo. The note with it: rat plasma, 8 mg/kg cisplatin, 9.9 mg/kg carboplatin, 19.6 mg/kg S-9168. As for the experimental part: Methods. Four groups of eight rats were cannulated as described in Example 6. […] The fourth group of rats was dosed with saline. Two rats in each group were sacrificed on days 4, 6, and 8 after treatment and 2 ml of blood were withdrawn. The blood sample was spun at 8000 rpm. for 2 minutes and the plasma was removed. BUN assays were performed using the Sigma Blood Urea Nitrogen Kit (Sigma Diagnostics Co., St. Louis, Mo.; Cat. No. 535-A).

For series [6], the system named is NCI-H460 cells. The following applies: NCI-H460, previously determined NCI values; cited from earlier work.
In series [7] the test system is HCT-15 cells. The note with it: HCT-15, previously determined NCI values; cited from earlier work.
In series [8] the test system is OVCAR-3 cells. The following applies: OVCAR-3, previously determined NCI value; cited from earlier work.
Series [9] relates to MCF-7 cells. The following applies: MCF-7, previously determined NCI values; cited from earlier work.
For series [10], the system named is HT-29 cells. The note with it: HT-29, previously determined NCI values; cited from earlier work.
Series [11] concerns HCT-116 cells. The note with it: HCT-116, previously determined NCI values; cited from earlier work.
Series [12] concerns MCF-7 cells. The series can be described thus: Cytotoxicity assay (sulforhodamine B), MCF-7. The class given is cell-based. As for the experimental part: as §1
The test system of series [13] is HT-29 cells. Kind of series: Cytotoxicity assay (sulforhodamine B), HT-29. The note with it: HT-29, Assay 8, 48 h drug exposure. The class given is cell-based. The protocol: as §1
The subject of series [14] is HCT-116 cells. Kind of series: Cytotoxicity assay (sulforhodamine B), HCT-116. The class given is cell-based. The note with it: HCT-116, Assay 9, 48 h drug exposure. The protocol: as §1

We go through two molecules from US20060142593A1, “Platinum compounds” (Sonus Pharmaceuticals, Inc., priority 2002, published 2006).

Turning to `N.N.O=C([O-])C1(C(=O)[O-])CCC1.[Pt+2]` [Carboplatin, cis-diamine[1,1-cyclobutnaedicarboxylate(2-)-O,O′-platinum(II)], the “GI50 (log)” value in the series on NCI-H460 cells [1] (NCI-H460, Assay 2, 48 h drug exposure) is “(−4.96) Pt mg/ml (log)”; in the series on HCT-15 cells [2] (HCT-15, Assay 2, 48 h drug exposure), “(−4.31) Pt mg/ml (log)”; in the series with OVCAR-3 cells [3], “(−4.82) Pt mg/ml (log)”. In addition, the average creatinine level in the series on rats [4] (day 4) is 0.6659 mg/dL; with rats [4] (day 6) it was 0.7039 mg/dL; with rats [4] (day 8) it was 0.5402 mg/dL. Further, the entries for the “average BUN level” value in the series with rats [5] (day 4), in the series on rats [5] (day 6) and in the series with rats [5] (day 8) were 28.92 mg/dL, 21.59 mg/dL and 25.52 mg/dL, respectively. The “GI50 (log), NCI values” in the series with NCI-H460 cells [6] is reported as “(−5.21) Pt mg/ml (log)”; in the series with HCT-15 cells [7] it was “(−4.31) Pt mg/ml (log)”; in the series with MCF-7 cells [9], “(−4.61) Pt mg/ml (log)”; with HT-29 cells [10] it was “(−4.41) Pt mg/ml (log)”; in the series with HCT-116 cells [11], “(−4.51) Pt mg/ml (log)”. Further, the “GI50 (log), NCI value” in the series with OVCAR-3 cells [8] is reported as “(−4.91) Pt mg/ml (log)”.
As for `N.N.[Cl][Pt][Cl]` [Cisplatin, cis-diaminedichloroplatinum(II)], the “GI50 (log)” value with NCI-H460 cells [1] (NCI-H460, Assay 1, 48 h drug exposure) is recorded as “(−6.98) Pt mg/ml (log)”; in the series with HCT-15 cells [2] (HCT-15, Assay 5, 48 h drug exposure), “(−6.65) Pt mg/ml (log)”; in the series with MCF-7 cells [12] (MCF-7, Assay 2, 48 h drug exposure) it was “(−5.10) Pt mg/ml (log)”; in the series with MCF-7 cells [12] (MCF-7, Assay 7, 48 h drug exposure) it was “(−6.14) Pt mg/ml (log)”; in the series on HT-29 cells [13], “(−5.99) Pt mg/ml (log)”; with HCT-116 cells [14] it was “(−6.13) Pt mg/ml (log)”. For the same molecule, the “GI50 (log), NCI values” in the series with NCI-H460 cells [6] is given as “(−6.92) Pt mg/ml (log)”; in the series on HCT-15 cells [7] it was “(−5.82) Pt mg/ml (log)”; in the series with MCF-7 cells [9], “(−6.22) Pt mg/ml (log)”; with HT-29 cells [10] it was “(−5.82) Pt mg/ml (log)”; in the series with HCT-116 cells [11], “(−6.12) Pt mg/ml (log)”. The “GI50 (log), NCI value” with OVCAR-3 cells [8] is “(−6.32) Pt mg/ml (log)”.
